Where two headings read alike, the source gives them in different places.
Assays:
MV-4-11 cells = experiment: Cell viability in MV-4-11 cells (CellTiter Glo2); assay type: cell-based; details: Homo sapiens, MV4-11, 96 h, 8-point dose response, 4 days
Method: Approximately 10,000 MV-4-11 cells per well of a 96-well plate were treated with DMSO (no drug control) or each compound in Tables E1 and E2 in an 8-point dose response for 4 days, Cell viability was measured using CellTiter Glo2. The ICse of each compound was determined using CDD Vault.

NAMPT = biological target: T1, NAMPT (Homo sapiens, UniProt P43490); experiment: NAMPT Activity Assay (Abcam #ab221819); assay type: biochemical; details: purified NAMPT, two-step reaction, OD450 nm; percent inhibition vs no drug; compound concentration not stated
T1 construct: purchased Abcam ab221819

[1] = CellTiter Glo2 (Table E1), read-out: MV-4-11 IC50
[2] = CellTiter Glo2 (Table E2), read-out: MV-4-11 Cell Viability, MV-4-11 IC50

T1 sequence (P43490 whole entry): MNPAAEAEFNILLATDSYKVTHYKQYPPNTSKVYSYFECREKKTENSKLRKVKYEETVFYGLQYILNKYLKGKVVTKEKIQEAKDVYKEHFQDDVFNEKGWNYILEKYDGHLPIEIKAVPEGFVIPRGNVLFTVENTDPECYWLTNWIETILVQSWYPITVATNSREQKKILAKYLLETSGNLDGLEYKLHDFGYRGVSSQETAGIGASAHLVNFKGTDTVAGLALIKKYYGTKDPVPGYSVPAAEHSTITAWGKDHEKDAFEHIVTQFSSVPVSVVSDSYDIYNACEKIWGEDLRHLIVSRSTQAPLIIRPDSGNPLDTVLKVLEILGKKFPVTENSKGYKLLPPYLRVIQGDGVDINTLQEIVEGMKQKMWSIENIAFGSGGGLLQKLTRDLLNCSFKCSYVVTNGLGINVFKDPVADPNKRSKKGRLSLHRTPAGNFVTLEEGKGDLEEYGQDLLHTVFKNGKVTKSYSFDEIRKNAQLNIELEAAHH

Row | SMILES | IC50 (MV-4-11 cells; [1]) [µM] | NAMPT Inhibition Code (NAMPT) | IC50 (MV-4-11 cells; [2]) [µM]
1 | CCOC(=O)NCCC(=O)N(C)c1ccc(-c2ccc(C(=O)NCc3cccnc3C)cn2)cc1C [Compound I-491, Ethyl N-[3-[N,2-dimethyl-4-[5-[(2-methyl-3-pyridyl)methylcarbamoyl]-2-pyridyl]anilino]-3-oxo-propyl]carbamate] |  | A (A = <33% inhibition) | 1.83
2 | CCC(=O)N(C)c1ccc(-c2ccc(C(=O)NCc3ccc(OC)nc3)cn2)cc1C [Compound I-451] |  | B (B = ≥33 to <66% inhibition) | 5.37
3 | CCC(=O)N(C)c1ccc(-c2ccc(C(=O)N(C)Cc3cccnc3)cn2)cc1C [Compound I-496, N-methyl-6-[3-methyl-4-[methyl(propanoyl)amino]phenyl]-N-(3-pyridylmethyl)pyridine-3-carboxamide] |  | A (A = <33% inhibition) | > 15.8
4 | CC(=O)N(c1ccc(-c2ccc(C(=O)NCc3cccnc3)cc2)cc1C)C(C)C [Compound I-624, 4-[4-[Acetyl(isopropyl)amino]-3-methyl-phenyl]-N-(3-pyridylmethyl)benzamide] |  | B (B = ≥33 to <66% inhibition) | 0.04
5 | CC(=O)N(CC(C)C)c1ccc(-c2ccc(C(=O)NCc3cccnc3C)cn2)cc1C [Compound I-454, 6-[4-[acetyl(isobutyl)amino]-3-methyl-phenyl]-N-[(2-methyl-3-pyridyl)methyl]pyridine-3-carboxamide] |  | A (A = <33% inhibition) | 2.14
6 | CC(=O)N(CCC(F)(F)F)c1ccc(-c2ccc(C(=O)NCc3cccnc3)cn2)cc1Cl [Compound I-604, 6-[4-[Acetyl(3,3,3-trifluoropropyl)amino]-3-chloro-phenyl]-N-(3-pyridylmethyl)pyridine-3-carboxamide] |  | B (B = ≥33 to <66% inhibition) | 0.033
7 | CC(=O)N(c1ccc(-c2ccc(C(=O)NCc3cccnc3)cn2)cc1F)C(C)C [Compound I-626, 6-[4-[Acetyl(isopropyl)amino]-3-fluoro-phenyl]-N-(3-pyridylmethyl)pyridine-3-carboxamide] |  | C (C = ≥66% inhibition) | 0.0237

Now from value to compound:

Row | IC50 (MV-4-11 cells; [1]) [µM] | NAMPT Inhibition Code (NAMPT) | IC50 (MV-4-11 cells; [2]) [µM] | SMILES
8 | 4.26 | A (A = <33% inhibition) |  | CCC(=O)N(C)c1ccc(-c2ccc(C(=O)NCc3ccc(F)nc3C)cn2)cc1 [Compound I-390, N-[(6-fluoro-2-methyl-3-pyridyl)methyl]-6-[4-[methyl(propanoyl)amino]phenyl]pyridine-3-carboxamide]
9 | 2.91 | A (A = <33% inhibition) |  | CCC(=O)N(C)c1ccc(-c2ccc(C(=O)Nc3nc(C)cs3)cn2)cc1 [Compound I-355, 6-[4-[methyl(propanoyl)amino]phenyl]-N-(4-methylthiazol-2-yl)pyridine-3-carboxamide]
10 |  | A (A = <33% inhibition) | 0.436 | CCC(=O)N(C)c1ccc(-c2ccc(C(=O)NCc3cccnc3)cn2)cc1 [Compound I-331, 6-[4-[Methyl(propanoyl)amino]phenyl]-N-(3-pyridylmethyl)pyridine-3-carboxamide]
11 |  | B (B = ≥33 to <66% inhibition) | 7.63 | CCC(=O)N(C)c1ccc(-c2ccc(C(=O)NCc3ccc(C)nc3)cn2)cc1C [Compound I-450]
12 | > 30 | A (A = <33% inhibition) |  | CCC(=O)Nc1ccc(-c2ccc(C(=O)NCc3cccnc3)cn2)cc1 [Compound I-354, 6-[4-(propanoylamino)phenyl]-N-(3-pyridylmethyl)pyridine-3-carboxamide]
13 |  | C (C = ≥66% inhibition) | 0.0924 | CCN(C(C)=O)c1ccc(-c2ccc(C(=O)NCc3cccnc3)cn2)cc1Cl [Compound I-652, 6-[4-[Acetyl(ethyl)amino]-3-chloro-phenyl]-N-(3-pyridylmethyl)pyridine-3-carboxamide]

Source: US12612368B2 (Remedy Plan, Inc., priority 2019, dated 2026)
